Results published in ChEMBL document CHEMBL1687908, “Discovery of sulfated sterols from marine invertebrates as a new class of marine natural antagonists of farnesoid-X-receptor” (J Med Chem, 2011).
The source made the active and inactive calls.

Legend:
Assay type in all cases: functional, cell-based
[1] = target: T1, Bile acid receptor (Homo sapiens) (UniProt Q96RI1); assay: Antagonist activity at FXR in human HepG2 cells assessed as inhibition of CDCA-induced BSEP gene expression at 50 uM by real time PCR
T1 sequence (whole entry): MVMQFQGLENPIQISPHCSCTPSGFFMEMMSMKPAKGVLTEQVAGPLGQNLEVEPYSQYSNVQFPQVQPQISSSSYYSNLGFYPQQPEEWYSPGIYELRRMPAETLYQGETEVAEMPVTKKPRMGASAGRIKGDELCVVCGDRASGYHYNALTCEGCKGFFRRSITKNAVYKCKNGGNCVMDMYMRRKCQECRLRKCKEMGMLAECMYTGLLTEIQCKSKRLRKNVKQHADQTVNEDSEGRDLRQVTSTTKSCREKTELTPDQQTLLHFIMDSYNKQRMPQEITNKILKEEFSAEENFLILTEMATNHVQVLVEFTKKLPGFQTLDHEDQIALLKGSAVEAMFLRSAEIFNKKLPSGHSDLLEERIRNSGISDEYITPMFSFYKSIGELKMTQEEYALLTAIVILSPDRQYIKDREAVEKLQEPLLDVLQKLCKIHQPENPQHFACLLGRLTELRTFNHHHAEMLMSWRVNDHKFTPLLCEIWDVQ

[2] = target: T1, Bile acid receptor (Homo sapiens); assay: Antagonist activity at FXR in human HepG2 cells assessed as inhibition of CDCA-induced OSTbata gene expression at 50 uM by real time PCR
HepG2 = assay: Inhibition of CDCA-induced FXR expression in human HepG2 cells after 18 hrs by luminometric analysis
[3] = target: T1, Bile acid receptor (Homo sapiens); assay: Antagonist activity at FXR expressed in human HepG2 cells assessed as stabilization of the NCoR at the OSTalpha promoter at 50 uM after 18 hrs by chromatin immunoprecipitation
[4] = target: T1, Bile acid receptor (Homo sapiens); assay: Antagonist activity at FXR in human HepG2 cells assessed as inhibition of CDCA-induced Cyp7A1 gene expression at 50 uM by real time PCR
[5] = target: T1, Bile acid receptor (Homo sapiens); assay: Antagonist activity at FXR in human HepG2 cells assessed as inhibition of CDCA-induced OSTalpha gene expression at 50 uM by real time PCR

C[C@H](CO)[C@@H](C)CC[C@@H](COS(=O)(=O)O)[C@H]1CC[C@H]2[C@@H]3CC[C@@H]4[C@H](O)[C@H](OS(=O)(=O)O)CC[C@]4(C)[C@H]3CC[C@]12C
active: inhibition [1] | inhibition [2] | inhibition (HepG2) Dose-dependent effect | Activity [3] | inhibition [4] | inhibition [5]
